Data on one compound can be found in patent publication US8686050B2, “Diglycidic ether derivative therapeutics and methods for their use” (British Columbia Cancer Agency Branch, priority 2008, dated 2014).

Entries after “also recorded” stand apart in the source; their conditions may differ. Structures can show the parent of a compound that is named as a salt.

Assay [1] has as its system VEGF. Put plainly: VEGF staining of harvested LNCaP xenografts. The assay is classed as in vivo, mice. The settings on record: harvested at day 25 from castrated hosts. The text has this: Angiogenesis in prostate cancer is predominantly dependent upon vascular endothelial growth factor (VEGF). Testosterone is a potent inducer of VEGF in the prostate (Häggström et al 1999 J Urol. 161, 1620-1625) and re-expression of VEGF in androgen independent tumours is consistent with the re-expression of androgen-regulated genes (Gregory et al 1998 Cancer Res. 58, 5718-5724). Expression of VEGF is associated with androgen independence (Mitsiades et al 2001 Expert Opin Investig Drugs. 10, 1099-1115) and aggressive metastatic disease (Harper et al 1998 J Pathol. 186, 169-177; Balbay et al 1999 Clin Cancer Res. 5, 783-789; Melnyk et al 1999 J Urol. 161, 960-963).

Assay [2] has as its target T1, AR (Homo sapiens, UniProt P10275, T878A).
T1 sequence (P10275 1-920 T878A): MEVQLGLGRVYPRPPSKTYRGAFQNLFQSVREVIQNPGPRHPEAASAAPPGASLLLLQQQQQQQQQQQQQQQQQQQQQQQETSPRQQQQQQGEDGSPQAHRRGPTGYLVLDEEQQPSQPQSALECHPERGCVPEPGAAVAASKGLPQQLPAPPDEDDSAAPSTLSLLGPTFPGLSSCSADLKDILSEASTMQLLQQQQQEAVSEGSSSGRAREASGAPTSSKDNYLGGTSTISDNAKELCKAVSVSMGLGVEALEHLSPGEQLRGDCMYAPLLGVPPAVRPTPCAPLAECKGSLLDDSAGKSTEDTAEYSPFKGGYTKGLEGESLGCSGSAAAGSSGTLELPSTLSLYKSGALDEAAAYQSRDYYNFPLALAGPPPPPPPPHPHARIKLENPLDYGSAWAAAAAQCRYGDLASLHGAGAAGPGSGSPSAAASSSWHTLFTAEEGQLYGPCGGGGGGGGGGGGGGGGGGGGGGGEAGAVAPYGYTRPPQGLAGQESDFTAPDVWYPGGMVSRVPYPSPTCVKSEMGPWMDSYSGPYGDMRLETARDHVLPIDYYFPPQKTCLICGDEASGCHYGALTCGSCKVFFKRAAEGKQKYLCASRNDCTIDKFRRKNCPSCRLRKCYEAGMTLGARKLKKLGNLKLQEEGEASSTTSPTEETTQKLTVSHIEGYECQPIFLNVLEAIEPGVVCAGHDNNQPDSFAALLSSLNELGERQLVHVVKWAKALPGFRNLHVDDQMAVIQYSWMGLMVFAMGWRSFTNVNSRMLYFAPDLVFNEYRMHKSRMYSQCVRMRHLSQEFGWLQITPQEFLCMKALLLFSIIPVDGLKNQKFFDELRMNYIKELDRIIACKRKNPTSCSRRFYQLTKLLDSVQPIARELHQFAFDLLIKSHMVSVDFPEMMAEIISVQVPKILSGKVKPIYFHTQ
The assay is described as follows: AR protein in harvested LNCaP xenografts (IHC, western blot). More on the design: LNCaP human prostate cancer cells express endogenous androgen receptor (AR); from tissue; host or cells: LNCaP xenografts harvested from castrated NOD-SCID mice. The assay is classed as in vivo, mice. The settings on record: I.V. or I.T delivery. The method, then:
Levels of cytokeratin 18 were measured as an indication of amount of epithelial cells in the xenograft samples.
(In general: A western blot detects proteins with antibodies after separation by electrophoresis.)

Assay [3] addresses T2, glucocorticoid receptor (GR) (Homo sapiens, UniProt P04150).
T2 construct: Cells were co-transfected with expression plasmids for full-length hGR, PRβ and the relative reporter; expressed in transfected cells; host or cells: LNCaP
T2 sequence (P04150 1-777): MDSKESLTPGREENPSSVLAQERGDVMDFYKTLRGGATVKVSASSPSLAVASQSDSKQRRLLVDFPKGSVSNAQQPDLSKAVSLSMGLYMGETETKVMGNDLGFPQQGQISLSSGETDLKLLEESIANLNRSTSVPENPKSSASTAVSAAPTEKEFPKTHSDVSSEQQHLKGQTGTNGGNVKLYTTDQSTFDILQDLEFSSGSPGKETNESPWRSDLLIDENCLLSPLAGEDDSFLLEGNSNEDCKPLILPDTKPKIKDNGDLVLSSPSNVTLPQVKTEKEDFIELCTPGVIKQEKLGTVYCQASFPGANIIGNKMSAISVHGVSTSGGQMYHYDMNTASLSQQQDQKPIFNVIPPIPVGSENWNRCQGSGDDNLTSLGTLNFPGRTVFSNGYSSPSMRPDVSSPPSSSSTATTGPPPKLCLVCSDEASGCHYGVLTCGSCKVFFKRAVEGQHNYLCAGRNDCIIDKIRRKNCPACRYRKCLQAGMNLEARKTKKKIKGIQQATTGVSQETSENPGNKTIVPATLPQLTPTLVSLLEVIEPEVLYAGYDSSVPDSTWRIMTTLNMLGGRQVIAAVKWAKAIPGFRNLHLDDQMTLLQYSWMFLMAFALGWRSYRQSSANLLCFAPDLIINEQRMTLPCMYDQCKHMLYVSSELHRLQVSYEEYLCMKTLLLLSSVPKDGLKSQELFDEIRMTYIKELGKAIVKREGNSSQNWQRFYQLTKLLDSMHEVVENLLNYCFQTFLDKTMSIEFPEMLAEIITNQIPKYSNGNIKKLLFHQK
Put plainly: GRE-luciferase reporter, steroid receptor specificity. The conditions noted are these: LNCaP cells transfected with GR, steroid 10 nM; 185-9-2 5 μg/ml. The assay is classed as cell-based. The protocol:
Sequence similarities of amino acids in the AR with related human steroid receptors PR and glucocorticoid receptor (GR) are significant in some domains such as the DBD. The AR NTD shares less than 15% homology with the PR and GR, but these receptors interact with some of the same proteins (eg., SRC-1 and CBP). […] Cells were co-transfected with expression plasmids for full-length hGR, PRβ and the relative reporter (i.e., pGR-Luc or PRE-E1b-Luc reporters). Cells were then treated with ethanol vehicle, dexamethasone (GR), 4-pregnene-3,20 dione (progesterone) (PR) followed by measurement of luciferase activity. […] Some antiandrogens currently used in the clinic have progestational and glucocorticoidal activities. In adult males, the role of the PR activity is unclear.
Background: A reporter such as luciferase makes a cellular process visible.

In the case of `CC(C)(c1ccc(OCC(O)CO)cc1)c1ccc(OCC(O)CCl)cc1` (stereo not shown) [185-9-2, BADGE.HCL.H2O], the entries for the “VEGF protein in LNCaP xenografts” value in assay [1] and in assay [1] (listed as PNG01-185-017-9-2) were “decreased levels of vascular endothelial growth factor (VEGF) protein” and “inhibited the expression of VEGF”, respectively. The “levels of AR protein in xenografts” value in assay [2] is “does not reduce levels of AR protein; also recorded: did not decrease levels of AR protein”. In addition, in assay [3], the “GRE-luciferase activity in response to ligand” value is recorded as “did NOT inhibit; also recorded: does NOT inhibit”.
